Each block holds one compound with its values, some of them ahead of it.
Experiments:
[1] = test system: RBA CRL-1747; experiment: In vitro cellular uptake and blocking of ^99mTc-EC-angiostatin with unlabeled angiostatin; format: cell-based, rat; settings: unlabeled angiostatin 0-200 μM, RBA CRL-1747, 2 hours; read-out: IC-50 of angiostatin (inhibition of ^99mTc-EC-angiostatin uptake)
Protocol: The IC-50 of angiostatin was 176 μM (R^2=0.998) (FIG. 3).

[2] = test system: RBA CRL-1747 mammary tumor; experiment: Biodistribution in breast (mammary) tumor-bearing rats; format: in vivo, rat; settings: Table 2
Protocol: (§1) Biodistribution was assessed in mammary tumor-bearing rats (RBA CRL-1747, n=3/time interval, iv). Studies were performed 14 to 17 days after implantation when tumors reached approximately 1 cm in diameter. Following administration of the radiotracer, rats were sacrificed at 0.5-4 hrs. The selected tissues were excised, weighed and counted for radioactivity by using a gamma counter (Packard Instruments, Downers Grove, Ill.). The biodistribution of tracer in each sample was calculated as percentage of the injected dose per gram of tissue wet weight (% ID/g).
as §1, with “breast” for “mammary”

[3] = test system: A549 human lung cancer tumor; experiment: Tissue distribution in lung tumor-bearing nude mice; format: in vivo
Protocol: Female athymic nude mice (NCr-nu/nu, NCI, Bethasda, Md.) were inoculated with human lung cancer cells (A549 tumor cell line, 3×10^6 cells/mouse, intramuscular) by one author in the mid-dorsal region. After the tumor reached 6 mm, separate biodistribution studies using ^99mTc-EC-DG and 18F-FDG were conducted. Each received ^99mTc-EC-DG or 18F-FDG intravenously (n=3/time point). The injection activity was 1-3 μCi/mouse. The injected mass of ^99mTc-EC-DG was 0.2 mg/rodent.

IC50 [1]: 176 µM
Compound: angiostatin

Blood ([2]; 1 Hour): 0.273 ± 0.039 % ID/g
Intestine ([2]; 1 Hour): 0.787 ± 0.106 % ID/g
Kidney ([2]; 1 Hour): 8.991 ± 0.268 % ID/g
Liver ([2]; 1 Hour): 0.367 ± 0.006 % ID/g
Lung ([2]; 1 Hour): 0.187 ± 0.029 % ID/g
Muscle ([2]; 1 Hour): 0.043 ± 0.002 % ID/g
Stomach ([2]; 1 Hour): 0.127 ± 0.106 % ID/g
Thyroid ([2]; 1 Hour): 0.229 ± 0.118 % ID/g
Tumor ([2]; 1 Hour): 0.149 ± 0.020 % ID/g
Tumor/Blood ([2]; 1 Hour): 0.544 ± 0.004
Tumor/Lung ([2]; 1 Hour): 0.797 ± 0.022
Tumor/Muscle ([2]; 1 Hour): 3.414 ± 0.325
Urine ([2]; 1 Hour): 11.045 ± 6.158 % ID/g
Blood ([2]; 2 Hour): 0.211 ± 0.001 % ID/g
Intestine ([2]; 2 Hour): 0.401 ± 0.093 % ID/g
Kidney ([2]; 2 Hour): 9.116 ± 0.053 % ID/g
Liver ([2]; 2 Hour): 0.286 ± 0.073 % ID/g
Lung ([2]; 2 Hour): 0.144 ± 0.002 % ID/g
Muscle ([2]; 2 Hour): 0.028 ± 0.009 % ID/g
Stomach ([2]; 2 Hour): 0.037 ± 0.027 % ID/g
Thyroid ([2]; 2 Hour): 0.106 ± 0.003 % ID/g
Tumor ([2]; 2 Hour): 0.115 ± 0.002 % ID/g
Tumor/Blood ([2]; 2 Hour): 0.546 ± 0.010
Tumor/Lung ([2]; 2 Hour): 0.797 ± 0.002
Tumor/Muscle ([2]; 2 Hour): 4.425 ± 1.397
Urine ([2]; 2 Hour): 13.192 ± 4.505 % ID/g
Blood ([2]; 4 Hour): 0.149 ± 0.008 % ID/g
Intestine ([2]; 4 Hour): 0.103 ± 0.009 % ID/g
Kidney ([2]; 4 Hour): 7.834 ± 1.018 % ID/g
Liver ([2]; 4 Hour): 0.234 ± 0.016 % ID/g
Lung ([2]; 4 Hour): 0.120 ± 0.012 % ID/g
Muscle ([2]; 4 Hour): 0.019 ± 0.001 % ID/g
Stomach ([2]; 4 Hour): 0.043 ± 0.014 % ID/g
Thyroid ([2]; 4 Hour): 0.082 ± 0.005 % ID/g
Tumor ([2]; 4 Hour): 0.096 ± 0.005 % ID/g
Tumor/Blood ([2]; 4 Hour): 0.649 ± 0.005
Tumor/Lung ([2]; 4 Hour): 0.798 ± 0.007
Tumor/Muscle ([2]; 4 Hour): 5.093 ± 0.223
Urine ([2]; 4 Hour): 8.693 ± 2.981 % ID/g
Blood ([2]; 30 Min.): 0.435 ± 0.29 % ID/g
Intestine ([2]; 30 Min.): 0.173 ± 0.029 % ID/g
Kidney ([2]; 30 Min.): 7.914 ± 0.896 % ID/g
Liver ([2]; 30 Min.): 0.508 ± 0.062 % ID/g
Lung ([2]; 30 Min.): 0.272 ± 0.019 % ID/g
Muscle ([2]; 30 Min.): 0.060 ± 0.006 % ID/g
Stomach ([2]; 30 Min.): 0.136 ± 0.060 % ID/g
Thyroid ([2]; 30 Min.): 0.219 ± 0.036 % ID/g
Tumor ([2]; 30 Min.): 0.342 ± 0.163 % ID/g
Tumor/Blood ([2]; 30 Min.): 0.776 ± 0.322
Tumor/Lung ([2]; 30 Min.): 1.256 ± 0.430
Tumor/Muscle ([2]; 30 Min.): 5.841 ± 3.253
Urine ([2]; 30 Min.): 9.124 ± 0.808 % ID/g
Compound: O=C([O-])[C@H](C[S-])NCCN[C@@H](CS)C(=O)[O-].[O]=[Tc+3] [^99mTc-EC, ^99mTc-L,L-ethylenedicysteine, reference compound]

Compound: OC[C@H]1OC(O)[C@H]([18F])[C@@H](O)[C@@H]1O (stereo partly drawn) [^18FDG, [^18F]fluorodeoxyglucose, reference compound]
Blood ([3]; 30 min): 0.793 ± 0.067 % of injected dose per gram of tissue weight
Brain ([3]; 30 min): 6.557 ± 0.390 % of injected dose per gram of tissue weight
Heart ([3]; 30 min): 11.94 ± 2.571 % of injected dose per gram of tissue weight
Intestine ([3]; 30 min): 2.322 ± 0.542 % of injected dose per gram of tissue weight
Kidney ([3]; 30 min): 1.137 ± 0.117 % of injected dose per gram of tissue weight
Liver ([3]; 30 min): 1.051 ± 0.057 % of injected dose per gram of tissue weight
Lung ([3]; 30 min): 2.490 ± 0.209 % of injected dose per gram of tissue weight
Muscle ([3]; 30 min): 4.876 ± 0.621 % of injected dose per gram of tissue weight
Spleen ([3]; 30 min): 1.824 ± 0.196 % of injected dose per gram of tissue weight
Stomach ([3]; 30 min): 5.046 ± 0.461 % of injected dose per gram of tissue weight
Thyroid ([3]; 30 min): 4.490 ± 0.526 % of injected dose per gram of tissue weight
Tumor ([3]; 30 min): 2.226 ± 0.150 % of injected dose per gram of tissue weight
Tumor/Blood ([3]; 30 min): 2.821 ± 0.144
Tumor/Lung ([3]; 30 min): 0.912 ± 0.119
Tumor/Muscle ([3]; 30 min): 0.463 ± 0.026
Blood ([3]; 2 h): 0.236 ± 0.009 % of injected dose per gram of tissue weight
Brain ([3]; 2 h): 3.113 ± 0.132 % of injected dose per gram of tissue weight
Heart ([3]; 2 h): 20.33 ± 7.675 % of injected dose per gram of tissue weight
Intestine ([3]; 2 h): 2.764 ± 0.496 % of injected dose per gram of tissue weight
Kidney ([3]; 2 h): 0.553 ± 0.104 % of injected dose per gram of tissue weight
Liver ([3]; 2 h): 0.586 ± 0.040 % of injected dose per gram of tissue weight
Lung ([3]; 2 h): 2.222 ± 0.137 % of injected dose per gram of tissue weight
Muscle ([3]; 2 h): 5.409 ± 0.611 % of injected dose per gram of tissue weight
Spleen ([3]; 2 h): 1.903 ± 0.144 % of injected dose per gram of tissue weight
Stomach ([3]; 2 h): 4.374 ± 0.864 % of injected dose per gram of tissue weight
Thyroid ([3]; 2 h): 4.617 ± 0.400 % of injected dose per gram of tissue weight
Tumor ([3]; 2 h): 1.699 ± 0.172 % of injected dose per gram of tissue weight
Tumor/Blood ([3]; 2 h): 7.261 ± 1.007
Tumor/Lung ([3]; 2 h): 0.775 ± 0.113
Tumor/Muscle ([3]; 2 h): 0.319 ± 0.031
Blood ([3]; 4 h): 0.203 ± 0.062 % of injected dose per gram of tissue weight
Brain ([3]; 4 h): 2.065 ± 0.080 % of injected dose per gram of tissue weight
Heart ([3]; 4 h): 19.35 ± 8.286 % of injected dose per gram of tissue weight
Intestine ([3]; 4 h): 1.562 ± 0.342 % of injected dose per gram of tissue weight
Kidney ([3]; 4 h): 0.568 ± 0.027 % of injected dose per gram of tissue weight
Liver ([3]; 4 h): 0.785 ± 0.039 % of injected dose per gram of tissue weight
Lung ([3]; 4 h): 2.280 ± 0.182 % of injected dose per gram of tissue weight
Muscle ([3]; 4 h): 4.743 ± 0.610 % of injected dose per gram of tissue weight
Spleen ([3]; 4 h): 1.591 ± 0.161 % of injected dose per gram of tissue weight
Stomach ([3]; 4 h): 2.278 ± 0.455 % of injected dose per gram of tissue weight
Thyroid ([3]; 4 h): 4.424 ± 0.442 % of injected dose per gram of tissue weight
Tumor ([3]; 4 h): 1.606 ± 0.182 % of injected dose per gram of tissue weight
Tumor/Blood ([3]; 4 h): 8.932 ± 1.973
Tumor/Lung ([3]; 4 h): 0.717 ± 0.106
Tumor/Muscle ([3]; 4 h): 0.346 ± 0.048
tumor-to-tissue ratios, ^99mTc-EC-DG versus 18F-FDG ([3]; A549 nude mice, iv): higher tumor/blood ratios

Source: patent US9050378B2, “N2S2 chelate-targeting ligand conjugates” (Board of Regents, The University of Texas System, priority 2003, dated 2015)
